Measurements taken from patent US10689377B2 (Mirati Therapeutics, Inc., priority 2017, dated 2020).
Structures can show the parent of a compound that is named as a salt.

Biological target: KRas G12C (Homo sapiens, UniProt P01116, G12C)
Assay: Cellular inhibition of KRas G12C measured by Phospho-ERK in NCI-H358 cells
Type: cell-based
Details: pERK(Thr202/Tyr204) normalized with GAPDH, NCI-H358 cells, 3 hours; read-out: IC50
How it was run: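 NCI-H358 cells treated 3 h with compound (0.5% DMSO final), then fixed and methanol-permeabilised. In-cell immunofluorescence measured pERK(Thr202/Tyr204) normalised to GAPDH as percent of DMSO control. IC50 from a 4-parameter dose-response fit.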

Chain of KRas G12C (P01116 1-188 isoform P01116-2 G12C): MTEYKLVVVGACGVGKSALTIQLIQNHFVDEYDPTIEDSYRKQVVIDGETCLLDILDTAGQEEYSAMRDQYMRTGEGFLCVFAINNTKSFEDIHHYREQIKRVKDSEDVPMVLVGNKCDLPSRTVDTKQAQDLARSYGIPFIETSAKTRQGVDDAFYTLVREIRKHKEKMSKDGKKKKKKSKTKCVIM

SMILES	IC50 [nM]
C=CC(=O)N1CCN(c2nc(OCCCN3C[C@@H]4C[C@H]3CO4)nc3c2CCN(c2c(C)ccc4[nH]ncc24)C3)CC1 [Example 181, 1-(4-(2-(3-((1S,4S)-2-oxa-5-azabicyclo[2.2.1]heptan-5-yl)propoxy)-7-(5-methyl-1H-indazol-4-yl)-5,6,7,8-tetrahydropyrido[3,4-d]pyrimidin-4-yl)piperazin-1-yl)prop-2-en-1-one]	> 1000
C=CC(=O)N1CCN(c2nc(O[C@H](C)CN(C)C)nc3c2CCN(c2c(C)ccc4[nH]ncc24)C3)CC1 [Example 162, 1-[4-[2-[(1R)-2-(dimethylamino)-1-methyl-ethoxy]-7-(5-methyl-1H-indazol-4-yl)-6,8-dihydro-5H-pyrido[3,4-d]pyrimidin-4-yl]piperazin-1-yl]prop-2-en-1-one]	> 1000
C=CC(=O)N1CCN(c2nc(OC[C@H]3COCCN3C)nc3c2CCN(c2cccc4ccccc24)C3)CC1CC#N (stereo partly drawn) [Example 446, 2-(1-Acryloyl-4-(2-(((R)-4-methylmorpholin-3-yl)methoxy)-7-(naphthalen-1-yl)-5,6,7,8-tetrahydropyrido[3,4-d]pyrimidin-4-yl)piperazin-2-yl)acetonitrile]	> 1000
C=CC(=O)N1CCN(c2nc(OCC3CCN(Cc4ccccc4)C3)nc3c2CCN(c2cc(O)cc4ccccc24)C3)CC1 (stereo not shown) [Example 189, 1-(4-(2-((1-benzylpyrrolidin-3-yl)methoxy)-7-(3-hydroxynaphthalen-1-yl)-5,6,7,8-tetrahydropyrido[3,4-d]pyrimidin-4-yl)piperazin-1-yl)prop-2-en-1-one]	> 1000
C=CC(=O)N1CCN(c2nc(OC[C@H]3COCCN3C)nc3c2CCN(c2cccc4ccccc24)C3)CC1CC#N (stereo partly drawn) [Example 273, 2-(1-acryloyl-4-(2-(((R)-4-methylmorpholin-3-yl)methoxy)-7-(naphthalen-1-yl)-5,6,7,8-tetrahydropyrido[3,4-d]pyrimidin-4-yl)piperazin-2-yl)acetonitrile]	> 1000
C=C(F)C(=O)N1CCN(c2nc(OC[C@@H]3CCCN3C)nc3c2CCN(c2cccc4cccc(Cl)c24)C3)[C@@H](C(F)F)C1 [Example 621, 1-[(3R)-4-[7-(8-chloro-1-naphthyl)-2-[[(2S)-1-methylpyrrolidin-2-yl]methoxy]-6,8-dihydro-5H-pyrido[3,4-d]pyrimidin-4-yl]-3-(difluoromethyl)piperazin-1-yl]-2-fluoro-prop-2-en-1-one]	> 1000
C=CC(=O)N1CCN(c2ncnc3c2CCN(c2cccc4ccccc24)C3)CC1 [Example 3, 1-(4-(7-(naphthalen-1-yl)-5,6,7,8-tetrahydropyrido[3,4-d]pyrimidin-4-yl)piperazin-1-yl)prop-2-en-1-one]	> 1000
C=CC(=O)N1CCN(c2nc(OC[C@@H]3CCCN3C)nc3c2CCN(c2ccncc2C)C3)C[C@@H]1CC#N [Example 345, 2-[(2S)-4-[7-(3-methyl-4-pyridyl)-2-[[(2S)-1-methylpyrrolidin-2-yl]methoxy]-6,8-dihydro-5H-pyrido[3,4-d]pyrimidin-4-yl]-1-prop-2-enoyl-piperazin-2-yl]acetonitrile]	> 1000
C=CC(=O)N1CCN(c2nc(O[C@H](C)CN(C)C)nc3c2CCN(c2c(C)cccc2O)C3)CC1 [Example 95, (R)-1-(4-(2-((1-(dimethylamino)propan-2-yl)oxy)-7-(2-hydroxy-6-methylphenyl)-5,6,7,8-tetrahydropyrido[3,4-d]pyrimidin-4-yl)piperazin-1-yl)prop-2-en-1-one]	> 1000
C=C(F)C(=O)N1CCN(c2nc(OC[C@@H]3CCC(=O)N3C)nc3c2CCN(c2cccc4cccc(C)c24)C3)C[C@@H]1CC#N [Example 569, 2-[(2S)-1-(2-Fluoroprop-2-enoyl)-4-[7-(8-methyl-1-naphthyl)-2-[[(2S)-1-methyl-5-oxo-pyrrolidin-2-yl]methoxy]-6,8-dihydro-5H-pyrido[3,4-d]pyrimidin-4-yl]piperazin-2-yl]acetonitrile]	> 1000
C=CC(=O)N1CCN(c2nc(OCCO)nc3c2CCN(c2cc(O)cc4ccccc24)C3)CC1 [Example 142, 1-[4-[2-(2-hydroxyethoxy)-7-(3-hydroxy-1-naphthyl)-6,8-dihydro-5H-pyrido[3,4-d]pyrimidin-4-yl]piperazin-1-yl]prop-2-en-1-one]	> 1000
C=CS(=O)(=O)N1CCN(c2nc(OC[C@@H]3CCCN3C)nc3c2CCN(c2cccc(C)c2C)C3)CC1 [Example 343, 7-(2,3-dimethylphenyl)-2-[[(2S)-methylpyrrolidin-2-yl]methoxy]-4-(4-vinylsulfonylpiperazin-1-yl)-6,8-dihydro-5H-pyrido[3,4-d]pyrimidine]	> 1000
C=CC(=O)N1CCN(c2nc(OCCN(C)C)nc3c2CC(C)N(c2cc(O)cc4ccccc24)C3)CC1 (stereo not shown) [Example 48, 1-(4-(2-(2-(dimethylamino)ethoxy)-7-(3-hydroxynaphthalen-1-yl)-6-methyl-5,6,7,8-tetrahydropyrido[3,4-d]pyrimidin-4-yl)piperazin-1-yl)prop-2-en-1-one trifluoroacetate]	> 1000
C=CC(=O)N1CCN(c2nc(OC[C@@H]3C[C@@H](F)CN3C)nc3c2CCN(c2cccc4ccccc24)C3)C[C@@H]1CC#N [Example 306, 2-((S)-1-acryloyl-4-(2-(((2S,4R)-4-fluoro-1-methylpyrrolidin-2-yl)methoxy)-7-(naphthalen-1-yl)-5,6,7,8-tetrahydropyrido[3,4-d]pyrimidin-4-yl)piperazin-2-yl)acetonitrile]	0.1 to 1000
C=CC(=O)N1CCN(c2nc(OC[C@@H]3CCC(C)(C)N3C)nc3c2CCN(c2cccc4ccccc24)C3)CC1CC#N (stereo partly drawn) [Example 301, 2-[4-[7-(1-naphthyl)-2-[[(2S)-1,5,5-trimethylpyrrolidin-2-yl]methoxy]-6,8-dihydro-5H-pyrido[3,4-d]pyrimidin-4-yl]-1-prop-2-enoyl-piperazin-2-yl]acetonitrile]	0.1 to 1000

The next lines start with the values.

IC50 [nM]	SMILES
0.1 to 1000	C=C(F)C(=O)N1CCN(c2nc(OC[C@@H]3CCCN3C)nc3c2CCN(c2cncc4cccc(C)c24)C3)C[C@@H]1CC#N [Example 619, 2-[(2S)-1-(2-fluoroprop-2-enoyl)-4-[7-(5-methyl-4-isoquinolyl)-2-[[(2S)-1-methylpyrrolidin-2-yl]methoxy]-6,8-dihydro-5H-pyrido[3,4-d]pyrimidin-4-yl]piperazin-2-yl]acetonitrile]
0.1 to 1000	C=CC(=O)N1CCN(c2nc(OCCCN3CCOCC3)nc3c2CCN(c2cccc4cccc(C)c24)C3)C[C@@H]1CC#N [Example 370, (S)-2-(1-acryloyl-4-(7-(8-methylnaphthalen-1-yl)-2-(3-morpholinopropoxy)-5,6,7,8-tetrahydropyrido[3,4-d]pyrimidin-4-yl)piperazin-2-yl)acetonitrile]
0.1 to 1000	C=CC(=O)N1CCN(c2nc(OC[C@@H]3CCCN(C)C3)nc3c2CCN(c2cc(O)cc4ccccc24)C3)CC1 [Example 192, (R)-1-(4-(7-(3-hydroxynaphthalen-1-yl)-2-((1-methylpiperidin-3-yl)methoxy)-5,6,7,8-tetrahydropyrido[3,4-d]pyrimidin-4-yl)piperazin-1-yl)prop-2-en-1-one]
0.1 to 1000	C=CC(=O)N1CCN(c2nc(OC[C@H]3CN(C)CCO3)nc3c2CCN(c2cccc4ccccc24)C3)C[C@@H]1CC#N [Example 450, 2-((S)-1-Acryloyl-4-(2-(((R)-4-methylmorpholin-2-yl)methoxy)-7-(naphthalen-1-yl)-5,6,7,8-tetrahydropyrido[3,4-d]pyrimidin-4-yl)piperazin-2-yl)acetonitrile]
0.1 to 1000	C=CC(=O)N1CCN(c2nc(OC[C@@H]3CCN(C)C3)nc3c2CCN(c2cc(O)cc4ccccc24)C3)C[C@@H]1CC#N [Example 350, 2-((S)-1-acryloyl-4-(7-(3-hydroxynaphthalen-1-yl)-2-(((R)-1-methylpyrrolidin-3-yl)methoxy)-5,6,7,8-tetrahydropyrido[3,4-d]pyrimidin-4-yl)piperazin-2-yl)acetonitrile]
0.1 to 1000	C=C(F)C(=O)N1CCN(c2nc(OC[C@@H]3CC(F)(F)CN3C)nc3c2CCN(c2c(C)c(C)cc4[nH]ncc24)C3)C[C@@H]1CC#N [Example 613, 2-((S)-4-(2-(((S)-4,4-difluoro-1-methylpyrrolidin-2-yl)methoxy)-7-(5,6-dimethyl-1H-indazol-4-yl)-5,6,7,8-tetrahydropyrido[3,4-d]pyrimidin-4-yl)-1-(2-fluoroacryloyl)piperazin-2-yl)acetonitrile]
0.1 to 1000	CN1CCC[C@H]1COc1nc2c(c(N3CCN(C(=O)/C=C/CN4CCOCC4)[C@@H](CC#N)C3)n1)CCN(c1cccc(Cl)c1C(F)(F)F)C2 [Example 346, 2-[(2S)-4-[7-[3-chloro-2-(trifluoromethyl)phenyl]-2-[[(2S)-1-methylpyrrolidin-2-yl]methoxy]-6,8-dihydro-5H-pyrido[3,4-d]pyrimidin-4-yl]-1-[(E)-4-morpholinobut-2-enoyl]piperazin-2-yl]acetonitrile]
0.1 to 1000	Cc1cccc(N2CCc3c(nc(OC[C@@H]4CCCN4C)nc3N3CCN(C(=O)/C=C/CN(C)C)[C@@H](CC#N)C3)C2)c1C [Example 404, 2-((S)-1-((E)-4-(dimethylamino)but-2-enoyl)-4-(7-(2,3-dimethylphenyl)-2-(((S)-1-methylpyrrolidin-2-yl)methoxy)-5,6,7,8-tetrahydropyrido[3,4-d]pyrimidin-4-yl)piperazin-2-yl)acetonitrile]
0.1 to 1000	C=CC(=O)N1CCN(c2nc(OC[C@@H]3CCCN3C)nc3c2CCN(c2cccc(Cl)c2C(F)(F)F)C3)C[C@@H]1CC#N [Example 428, 2-((S)-1-acryloyl-4-(7-(3-chloro-2-(trifluoromethyl)phenyl)-2-(((S)-1-methylpyrrolidin-2-yl)methoxy)-5,6,7,8-tetrahydropyrido[3,4-d]pyrimidin-4-yl)piperazin-2-yl)acetonitrile]
0.1 to 1000	C=CC(=O)N1CCN(c2nc(OC[C@H]3CN(C)C(C)(C)CO3)nc3c2CCN(c2cccc4ccccc24)C3)C[C@@H]1CC#N [Example 452, 2-((S)-1-Acryloyl-4-(7-(naphthalen-1-yl)-2-(((R)-4,5,5-trimethylmorpholin-2-yl)methoxy)-5,6,7,8-tetrahydropyrido[3,4-d]pyrimidin-4-yl)piperazin-2-yl)acetonitrile]
